Columns and labels:
human TGR5 receptor = biological target: T1, human TGR5 receptor (Homo sapiens, UniProt Q8TDU6); assay: Human TGR5 cAMP production assay (hTGR5-CHO cells, DiscoveRx cAMP XS+ kit); assay type: cell-based; conditions: luminescent cAMP assay, read-out: Human TGR5 Lum. cAMP Activity (EC50)
T1 construct: host or cells: CHO-K1 (hTGR5-CHO)
T1 sequence (Q8TDU6 1-330): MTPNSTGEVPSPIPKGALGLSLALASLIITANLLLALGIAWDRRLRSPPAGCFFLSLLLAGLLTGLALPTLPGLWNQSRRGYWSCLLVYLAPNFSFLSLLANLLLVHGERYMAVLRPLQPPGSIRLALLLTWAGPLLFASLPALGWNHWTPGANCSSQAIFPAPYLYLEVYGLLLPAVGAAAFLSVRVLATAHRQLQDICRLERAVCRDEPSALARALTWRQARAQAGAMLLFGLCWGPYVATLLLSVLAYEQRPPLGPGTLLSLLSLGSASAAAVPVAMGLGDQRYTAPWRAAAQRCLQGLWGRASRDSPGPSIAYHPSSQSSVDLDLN
How it was run: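 EC50 values come from luminescent enzyme-complementation cAMP detection, read after overnight incubation. Beforehand, hTGR5-expressing CHO-K1 cells with IBMX and anti-cAMP antibody were exposed 1 h at room temperature to serially diluted (half-log) compounds.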

[1] = Pharmacokinetic profile in mice after oral gavage; assay type: in vivo, mouse; conditions: mouse; fasted male Hilltop mice, 10 mg/kg oral gavage, plasma; read-out: Cmax
How it was run: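 Plasma exposure (Cmax, AUC) by non-compartmental analysis of LC-MS/MS data, orbital blood taken at 0, 0.25, 0.5, 1, 2 and 4 h, each value averaging three mice. Dosing: 10 mg/kg oral gavage to overnight-fasted male Hilltop mice (8 weeks), vehicle PEG400/CMC/Tween-80.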

| EC50 (human TGR5 receptor) | Cmax [1] | Compound |
| --- | --- | --- |
| < 0.1 µM | 15 ng/mL | N#Cc1ccc(CCNC(=O)[C@@H]2CCCN2c2cc(N3CCC(CCCC(=O)NCC(N)=O)CC3)nc(C(F)(F)F)n2)cc1 [Compound 68, (S)-1-(6-(4-(4-((2-amino-2-oxoethyl)amino)-4-oxobutyl)piperidin-1-yl)-2-(trifluoromethyl)pyrimidin-4-yl)-N-(4-cyanophenethyl)pyrrolidine-2-carboxamide] |
| 0.1 to 0.999 µM | 630 ng/mL | N#Cc1ccc(CCNC(=O)[C@@H]2CCCN2c2cc(N3CCC(COCC(=O)O)CC3)nc(C(F)(F)F)n2)cc1 [Compound 88, (S)-2-((1-(6-(2-((4-cyanophenethyl)carbamoyl)pyrrolidin-1-yl)-2-(trifluoromethyl)pyrimidin-4-yl)piperidin-4-yl)methoxy)acetic acid] |
| < 0.1 µM | 2.9 ng/mL | N#Cc1ccc(CCNC(=O)[C@@H]2CCCN2c2cc(N3CCC(CCCC(=O)NCP(=O)(O)O)CC3)nc(C(F)(F)F)n2)cc1 [Compound 64, (S)-((4-(1-(6-(2-((4-cyanophenethyl)carbamoyl)pyrrolidin-1-yl)-2-(trifluoromethyl)pyrimidin-4-yl)piperidin-4-yl)butanamido)methyl)-phosphonic acid] |
| < 0.1 µM | 60 ng/mL | N#Cc1ccc(CCNC(=O)[C@@H]2CCCN2c2cc(N3CCC(CCNC(=O)NCCC(=O)O)CC3)nc(C(F)(F)F)n2)cc1 [Compound 81, (S)-3-(3-(2-(1-(6-(2-((4-cyanophenethyl)carbamoyl)pyrrolidin-1-yl)-2-(trifluoromethyl)pyrimidin-4-yl)piperidin-4-yl)ethyl)ureido)-propanoic acid] |
| < 0.1 µM | 7.3 ng/mL | N#Cc1ccc(CCNC(=O)[C@@H]2CCCN2c2cc(N3CCC(CCCC(=O)NCS(=O)(=O)O)CC3)nc(C(F)(F)F)n2)cc1 [Compound 66, (S)-(4-(1-(6-(2-((4-cyanophenethyl)carbamoyl)pyrrolidin-1-yl)-2-(trifluoromethyl)pyrimidin-4-yl)piperidin-4-yl)butanamido)-methanesulfonic acid] |
| < 0.1 µM | 233 ng/mL | N#Cc1ccc(CCNC(=O)[C@@H]2CCCN2c2cc(N3CCC(CO)CC3)nc(C(F)(F)F)n2)cc1 [Compound 1, (S)—N-(4-cyanophenethyl)-1-(6-(4-(hydroxymethyl)piperidin-1-yl)-2-(trifluoromethyl)pyrimidin-4-yl)pyrrolidine-2-carboxamide] |

The remaining lines, values behind:

| Compound | EC50 (human TGR5 receptor) | Cmax [1] |
| --- | --- | --- |
| O=C(CCCC1CCN(c2cc(N3CCC[C@H]3C(=O)NCCc3ccc(C(F)(F)F)cc3)nc(C(F)(F)F)n2)CC1)NCCNc1ncnc2c1ncn2[C@@H]1O[C@H](CO)C(O)C1O (stereo partly drawn) [Compound 96, (2S)-1-(6-(4-(4-((2-((9-((2R,5R)-3,4-dihydroxy-5-(hydroxymethyl)-tetrahydrofuran-2-yl)-9H-purin-6-yl)amino)ethyl)amino)-4-oxobutyl)piperidin-1-yl)-2-(trifluoromethyl)-pyrimidin-4-yl)-N-(4-(trifluoromethyl)-phenethyl)-pyrrolidine-2-carboxamide] | < 0.1 µM | 1.1 ng/mL |
| N#Cc1ccc(CCNC(=O)[C@@H]2CCCN2c2cc(N3CCC(CCCC(=O)N[C@@H](CCC(=O)O)C(=O)O)CC3)nc(C(F)(F)F)n2)cc1 [Compound 76, (S)-2-(4-(1-(6-((S)-2-((4-cyanophenethyl)carbamoyl)pyrrolidin-1-yl)-2-(trifluoromethyl)pyrimidin-4-yl)piperidin-4-yl)butanamido)-pentanedioic acid] | < 0.1 µM | 3 ng/mL |
| CS(=O)(=O)NCCNC(=O)CCCC1CCN(c2cc(N3CCC[C@H]3C(=O)NCCc3ccc(C(F)(F)F)cc3)nc(C(F)(F)F)n2)CC1 [Compound 91, (S)-1-(6-(4-(4-((2-(methylsulfonamido)ethyl)amino)-4-oxobutyl)piperidin-1-yl)-2-(trifluoromethyl)pyrimidin-4-yl)-N-(4-(trifluoromethyl)phenethyl)pyrrolidine-2-carboxamide] | < 0.1 µM | 10 ng/mL |
| O=C(NCCC1CCN(c2cc(N3CCC[C@H]3C(=O)NCCc3ccc(C(F)(F)F)cc3)nc(C(F)(F)F)n2)CC1)NCCS(=O)(=O)O [Compound 86, (S)-2-(3-(2-(1-(2-(trifluoromethyl)-6-(2-((4-(trifluoromethyl)phenethyl)-carbamoyl)pyrrolidin-1-yl)pyrimidin-4-yl)piperidin-4-yl)ethyl)ureido)-ethanesulfonic acid] | < 0.1 µM | 13 ng/mL |
| N#Cc1ccc(CCNC(=O)[C@@H]2CCCN2c2cc(N3CCC(CCNC(=O)NCCS(N)(=O)=O)CC3)nc(C(F)(F)F)n2)cc1 [Compound 80, (S)-N-(4-cyanophenethyl)-1-(6-(4-(2-(3-(2-sulfamoylethyl)ureido)-ethyl)piperidin-1-yl)-2-(trifluoromethyl)pyrimidin-4-yl)pyrrolidine-2-carboxamide] | < 0.1 µM | 1.2 ng/mL |
| N#Cc1ccc(CCNC(=O)[C@@H]2CCCN2c2cc(N3CCC(CCNC(=O)NCCS(=O)(=O)O)CC3)nc(C(F)(F)F)n2)cc1 [Compound 78, (S)-2-(3-(2-(1-(6-(2-((4-cyanophenethyl)carbamoyl)pyrrolidin-1-yl)-2-(trifluoromethyl)pyrimidin-4-yl)piperidin-4-yl)ethyl)ureido)ethanesulfonic acid] | < 0.1 µM | 1.3 ng/mL |
| N#Cc1ccc(CCNC(=O)[C@@H]2CCCN2c2cc(N3CCC(CCCC(=O)NCCNc4cc(C(=O)O)ncn4)CC3)nc(C(F)(F)F)n2)cc1 [Compound 101, (S)-6-((2-(4-(1-(6-(2-((4-cyanophenethyl)carbamoyl)pyrrolidin-1-yl)-2-(trifluoromethyl)pyrimidin-4-yl)piperidin-4-yl)butanamido)ethyl)amino)-pyrimidine-4-carboxylic acid] | < 0.1 µM | 0.7 ng/mL |
| CS(=O)(=O)NCCNC(=O)CCCC1CCN(c2cc(N3CCC[C@H]3C(=O)NCCc3ccc(C#N)cc3)nc(C(F)(F)F)n2)CC1 [Compound 93] | < 0.1 µM | 5 ng/mL |
| N#Cc1ccc(CCNC(=O)[C@@H]2CCCN2c2cc(N3CCC(CCCC(=O)N[C@@H](CCCNC(=N)N)C(=O)O)CC3)nc(C(F)(F)F)n2)cc1 [Compound 72, (S)-2-(4-(1-(6-((S)-2-((4-cyanophenethyl)carbamoyl)pyrrolidin-1-yl)-2-(trifluoromethyl)pyrimidin-4-yl)piperidin-4-yl)butanamido)-5-guanidinopentanoic acid] | < 0.1 µM | 1.6 ng/mL |
